Our source for the RatioLC50 and LC50 values is ChEMBL document CHEMBL3044773, “Adulticidal activity of phthalides identified in Cnidium officinale rhizome to B- and Q-biotypes of Bemisia tabaci” (2011).

Converted amounts (≈) assume the structure as drawn.

As usually defined, the LC50 is the concentration that kills 50% of the test population.

What all share (type): functional
Assay [1] relates to Bemisia tabaci. In words: Biotype susceptibility ratio, ratio of LC50 for female adult Bemisia tabaci biotype Q (sweet potato whitefly) to LC50 for female adult Bemisia tabaci biotype B.
Assay [2] has as its system Bemisia tabaci. In words: Adulticidal activity against female Bemisia tabaci biotype Q (sweet potato whitefly) in cucumber leaves assessed as residual contact toxicity treated for 30 secs before adult insect infestation measured after 24 hr by leaf dip bioassay. Particulars: foliar.
The subject of assay [3] is Bemisia tabaci. In words: Adulticidal activity against female Bemisia tabaci biotype B (sweet potato whitefly) in cucumber leaves assessed as residual contact toxicity treated for 30 secs before adult insect infestation measured after 24 hr by leaf dip bioassay. Particulars: foliar.

In the case of `O=[N+]([O-])/N=C1\NCCN1Cc1ccc(Cl)nc1` [IMIDACLOPRID], in the assay with Bemisia tabaci [1], the RatioLC50 is greater than 428.6. The LC50 in the assay on Bemisia tabaci [2] is greater than 3000 µg/mL; in the assay on Bemisia tabaci [3], 7 µg/mL (≈ 27.4 µM).
In the same order, the values of `CC1(C)C(C=C(Cl)Cl)C1C(=O)OC(C#N)c1cccc(Oc2ccccc2)c1` (stereo not drawn) [ALPHA-CYPERMETHRIN] are 1.4, 482 µg/mL (≈ 1160 µM) and 337 µg/mL (≈ 809 µM).
Regarding `CN1COCN(Cc2cnc(Cl)s2)/C1=N\[N+](=O)[O-]` [THIAMETHOXAM], in the assay on Bemisia tabaci [1], the RatioLC50 is given as greater than 1764.7. Besides, the figures for the 50% lethal concentration (LC50) in the assay on Bemisia tabaci [2] and in the assay with Bemisia tabaci [3] were greater than 3000 µg/mL and 1.7 µg/mL (≈ 5.83 µM), respectively.
On the same counts, the results for `C/C(=N\C#N)N(C)Cc1ccc(Cl)nc1` [ACETAMIPRID] are 31.4, 364 µg/mL (≈ 1640 µM) and 11.6 µg/mL (≈ 52.1 µM).
For `CCC/C=C1\OC(=O)C2=C1CCC=C2` [LIGUSTILIDE], in the assay on Bemisia tabaci [1], the RatioLC50 stood at 0.9. The LC50 worked out at 254 µg/mL (≈ 1340 µM) in the assay on Bemisia tabaci [2] and 268 µg/mL (≈ 1410 µM) in the assay with Bemisia tabaci [3].
In the same order, the values of `CCCC[C@@H]1OC(=O)c2ccccc21` [(3S)-BUTYLPHTHALIDE] are 1, 338 µg/mL (≈ 1780 µM) and 339 µg/mL (≈ 1780 µM).
As to `CCN(CC)c1nc(C)cc(OP(=S)(OC)OC)n1` [PIRIMIPHOS METHYL], in the assay with Bemisia tabaci [1], the RatioLC50 stood at 1.3. The LC50 was 235 µg/mL (≈ 770 µM) in the assay with Bemisia tabaci [2] and 188 µg/mL (≈ 616 µM) in the assay with Bemisia tabaci [3].
As for `CC(C)(C)c1ccc(CSc2cnn(C(C)(C)C)c(=O)c2Cl)cc1` [PYRIDABEN], the RatioLC50 in the assay with Bemisia tabaci [1] is recorded as 1.6. Also, the LC50 in the assay on Bemisia tabaci [2] was found to be 211 µg/mL (≈ 578 µM); in the assay with Bemisia tabaci [3], 129 µg/mL (≈ 354 µM).
On the same counts, the results for `CCC/C=C1\OC(=O)c2ccccc21` [Z-butylidenephthalide] are 2.3, 586 µg/mL (≈ 3110 µM) and 254 µg/mL (≈ 1350 µM).
`COP(=O)(OC)OC=C(Cl)Cl` [DICHLORVOS]: the RatioLC50 with Bemisia tabaci [1] amounted to 1.2. Further, the LC50 was found to be 224 µg/mL (≈ 1010 µM) with Bemisia tabaci [2] and 182 µg/mL (≈ 825 µM) in the assay on Bemisia tabaci [3].
